Source: paper PMC6409085, “Three odorant-binding proteins are involved in the behavioral response of Sogatella furcifera to rice plant volatiles” (PeerJ, 2019)
Where “and” joins values, the source holds several entries; their conditions need not be identical. Equal values may be shown once.

Key:
SfurOBP11 = SfurOBP11 (Sogatella furcifera, UniProt V5T6E3); assay: biochemical; assay type: binding
How it was run: (§1)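 Fluorescence competitive binding used 2.0 µM SfurOBP and 2.0 µM 1-NPN reporter in 50 mM Tris-HCl, pH 7.4, with odorants at 2-20 µM. Fluorescence was read 2 min after adding the odorant (excitation 337 nm, emission 390-490 nm), in triplicate. Ki was calculated from IC50 as IC50/(1 + [1-NPN]/K1-NPN).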

SfurOBP3 = SfurOBP3 (Sogatella furcifera, UniProt V5T818); assay: biochemical; assay type: binding; conditions: for Fluorescence competitive binding assay, fluorescence intensity: OBP3, three replicate columns;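 for Fluorescence competitive binding assay, fluorescence intensity: competitor odorant at 2 to 20 µM with protein and 1-NPN both 2.0 µM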
How it was run: as §1

SfurOBP1 = SfurOBP1 (Sogatella furcifera, UniProt V5T8N5); assay: biochemical; assay type: binding; conditions: for Fluorescence competitive binding assay, fluorescence intensity: OBP1, three replicate columns
How it was run: as §1

SfurOBP2 = SfurOBP2 (Sogatella furcifera, UniProt V5T759); assay: biochemical; assay type: binding
How it was run: as §1

S. furcifera adults = assay: Y-tube olfactometer behavioral trials; assay type: in vivo, Sogatella furcifera; conditions: odorant 50 µL/L vs hexane; adults
How it was run: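 Single S. furcifera adults (2 days post-emergence, starved 0.5 h) chose between odorant (100 µL of 50 µL/L on filter paper) and hexane control in a glass Y-tube, charcoal-filtered humidified air 300 mL/min per arm, 25 ± 1 °C, 50% RH. Choice scored if insect passed half an arm and stayed >1 min within 10 min; 45 insects per compound, chi-squared test.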
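Throughout, for Fluorescence competitive binding assay, fluorescence intensity: competitor odorant at 2 to 20 µM with protein and 1-NPN both 2.0 µM.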

SfurOBP3, sequence (V5T818 entry or part of it): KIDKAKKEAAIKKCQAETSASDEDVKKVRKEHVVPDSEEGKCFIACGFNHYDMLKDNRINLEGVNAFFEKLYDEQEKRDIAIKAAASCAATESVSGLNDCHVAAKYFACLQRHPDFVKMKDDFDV
SfurOBP1, sequence (V5T8N5 entry or part of it): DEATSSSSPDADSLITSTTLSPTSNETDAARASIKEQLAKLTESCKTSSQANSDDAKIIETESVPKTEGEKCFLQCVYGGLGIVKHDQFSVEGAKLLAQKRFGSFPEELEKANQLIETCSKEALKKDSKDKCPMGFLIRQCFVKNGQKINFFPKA
SfurOBP11, sequence (V5T6E3 entry or part of it): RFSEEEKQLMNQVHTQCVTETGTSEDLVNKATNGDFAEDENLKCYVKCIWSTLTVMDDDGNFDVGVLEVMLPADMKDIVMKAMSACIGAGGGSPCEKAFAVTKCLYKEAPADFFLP
SfurOBP2, sequence (V5T759 entry or part of it): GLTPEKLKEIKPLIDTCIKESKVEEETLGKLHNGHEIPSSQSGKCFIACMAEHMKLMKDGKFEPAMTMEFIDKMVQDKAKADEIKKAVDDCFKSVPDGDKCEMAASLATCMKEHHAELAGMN

SMILES: CC1=CC[C@@H](C(C)(C)O)CC1 [α-terpineol]
- IC50 (SfurOBP11): > 20 µM
- Fluorescence intensity, fluorescence competitive binding assay, OBP11 (SfurOBP11; ligand concentration 2, replicate 1): 29252
- Fluorescence intensity, fluorescence competitive binding assay, OBP11 (SfurOBP11; ligand concentration 2, replicate 2): 30685
- Fluorescence intensity, fluorescence competitive binding assay, OBP11 (SfurOBP11; ligand concentration 2, replicate 3): 32118
- Fluorescence intensity, fluorescence competitive binding assay, OBP11 (SfurOBP11; ligand concentration 4, replicate 1): 28869
- Fluorescence intensity, fluorescence competitive binding assay, OBP11 (SfurOBP11; ligand concentration 4, replicate 2): 31369
- Fluorescence intensity, fluorescence competitive binding assay, OBP11 (SfurOBP11; ligand concentration 4, replicate 3): 30942
- Fluorescence intensity, fluorescence competitive binding assay, OBP11 (SfurOBP11; ligand concentration 6, replicate 1): 28105
- Fluorescence intensity, fluorescence competitive binding assay, OBP11 (SfurOBP11; ligand concentration 6, replicate 2): 27021
- Fluorescence intensity, fluorescence competitive binding assay, OBP11 (SfurOBP11; ligand concentration 6, replicate 3): 30576
- Fluorescence intensity, fluorescence competitive binding assay, OBP11 (SfurOBP11; ligand concentration 8, replicate 1): 25898
- Fluorescence intensity, fluorescence competitive binding assay, OBP11 (SfurOBP11; ligand concentration 8, replicate 2): 26158
- Fluorescence intensity, fluorescence competitive binding assay, OBP11 (SfurOBP11; ligand concentration 8, replicate 3): 28412
- Fluorescence intensity, fluorescence competitive binding assay, OBP11 (SfurOBP11; ligand concentration 10, replicate 1): 27115
- Fluorescence intensity, fluorescence competitive binding assay, OBP11 (SfurOBP11; ligand concentration 10, replicate 2): 24221
- Fluorescence intensity, fluorescence competitive binding assay, OBP11 (SfurOBP11; ligand concentration 10, replicate 3): 26039
- Fluorescence intensity, fluorescence competitive binding assay, OBP11 (SfurOBP11; ligand concentration 12, replicate 1): 23153
- Fluorescence intensity, fluorescence competitive binding assay, OBP11 (SfurOBP11; ligand concentration 12, replicate 2): 22497
- Fluorescence intensity, fluorescence competitive binding assay, OBP11 (SfurOBP11; ligand concentration 12, replicate 3): 22406
- Fluorescence intensity, fluorescence competitive binding assay, OBP11 (SfurOBP11; ligand concentration 14, replicate 1): 22371
- Fluorescence intensity, fluorescence competitive binding assay, OBP11 (SfurOBP11; ligand concentration 14, replicate 2): 22254
- Fluorescence intensity, fluorescence competitive binding assay, OBP11 (SfurOBP11; ligand concentration 14, replicate 3): 22487
- Fluorescence intensity, fluorescence competitive binding assay, OBP11 (SfurOBP11; ligand concentration 16, replicate 1): 19119
- Fluorescence intensity, fluorescence competitive binding assay, OBP11 (SfurOBP11; ligand concentration 16, replicate 2): 17607
- Fluorescence intensity, fluorescence competitive binding assay, OBP11 (SfurOBP11; ligand concentration 16, replicate 3): 18419
- Fluorescence intensity, fluorescence competitive binding assay, OBP11 (SfurOBP11; ligand concentration 18, replicate 1): 25701
- Fluorescence intensity, fluorescence competitive binding assay, OBP11 (SfurOBP11; ligand concentration 18, replicate 2): 25030
- Fluorescence intensity, fluorescence competitive binding assay, OBP11 (SfurOBP11; ligand concentration 18, replicate 3): 24854
- Fluorescence intensity, fluorescence competitive binding assay, OBP11 (SfurOBP11; ligand concentration 20, replicate 1): 25268
- Fluorescence intensity, fluorescence competitive binding assay, OBP11 (SfurOBP11; ligand concentration 20, replicate 2): 25350
- Fluorescence intensity, fluorescence competitive binding assay, OBP11 (SfurOBP11; ligand concentration 20, replicate 3): 25312
- IC50 (SfurOBP3): 13.6 µM
- Fluorescence competitive binding assay, fluorescence intensity (SfurOBP3; ligand concentration 2): 41927 and 42538 and 43146
- Fluorescence competitive binding assay, fluorescence intensity (SfurOBP3; ligand concentration 4): 40833 and 40011 and 41655
- Fluorescence competitive binding assay, fluorescence intensity (SfurOBP3; ligand concentration 6): 42160 and 41392 and 42949
- Fluorescence competitive binding assay, fluorescence intensity (SfurOBP3; ligand concentration 8): 37611 and 37369 and 39854
- Fluorescence competitive binding assay, fluorescence intensity (SfurOBP3; ligand concentration 10): 32220 and 32701 and 33181
- Fluorescence competitive binding assay, fluorescence intensity (SfurOBP3; ligand concentration 12): 30392 and 29567 and 30934
- Fluorescence competitive binding assay, fluorescence intensity (SfurOBP3; ligand concentration 14): 29784 and 30310 and 29247
- Fluorescence competitive binding assay, fluorescence intensity (SfurOBP3; ligand concentration 16): 24410 and 25726 and 27469
- Fluorescence competitive binding assay, fluorescence intensity (SfurOBP3; ligand concentration 18): 26293 and 25033 and 26983
- Fluorescence competitive binding assay, fluorescence intensity (SfurOBP3; ligand concentration 20): 28495 and 26490 and 25496
- binding affinity to SfurOBP3 (in words) (SfurOBP3; SfurOBP3): high binding affinities
- IC50 (SfurOBP1): > 20 µM
- Fluorescence competitive binding assay, fluorescence intensity (SfurOBP1; ligand concentration 2 (μM)): 6377 and 6063 and 6691
- Fluorescence competitive binding assay, fluorescence intensity (SfurOBP1; ligand concentration 4 (μM)): 7679 and 7170 and 7304
- Fluorescence competitive binding assay, fluorescence intensity (SfurOBP1; ligand concentration 6 (μM)): 7149 and 7127 and 7171
- Fluorescence competitive binding assay, fluorescence intensity (SfurOBP1; ligand concentration 8 (μM)): 6956 and 7151 and 7930
- Fluorescence competitive binding assay, fluorescence intensity (SfurOBP1; ligand concentration 10 (μM)): 8380 and 7109 and 7555
- Fluorescence competitive binding assay, fluorescence intensity (SfurOBP1; ligand concentration 12 (μM)): 7012 and 7971 and 7255
- Fluorescence competitive binding assay, fluorescence intensity (SfurOBP1; ligand concentration 14 (μM)): 6581 and 7020 and 7628
- Fluorescence competitive binding assay, fluorescence intensity (SfurOBP1; ligand concentration 16 (μM)): 6623 and 7749 and 6480
- Fluorescence competitive binding assay, fluorescence intensity (SfurOBP1; ligand concentration 18 (μM)): 7107 and 7324 and 6847
- Fluorescence competitive binding assay, fluorescence intensity (SfurOBP1; ligand concentration 20 (μM)): 6572 and 7380 and 8412
- IC50 (SfurOBP2): > 20 µM
- Fluorescence competitive binding assay, OBP2 (raw fluorescence reading) (SfurOBP2; ligand concentration 2 (unit not given), replicate column 1 of 3): 18212
- Fluorescence competitive binding assay, OBP2 (raw fluorescence reading) (SfurOBP2; ligand concentration 2 (unit not given), replicate column 2 of 3): 17771
- Fluorescence competitive binding assay, OBP2 (raw fluorescence reading) (SfurOBP2; ligand concentration 2 (unit not given), replicate column 3 of 3): 19569
- Fluorescence competitive binding assay, OBP2 (raw fluorescence reading) (SfurOBP2; ligand concentration 4 (unit not given), replicate column 1 of 3): 20390
- Fluorescence competitive binding assay, OBP2 (raw fluorescence reading) (SfurOBP2; ligand concentration 4 (unit not given), replicate column 2 of 3): 18924
- Fluorescence competitive binding assay, OBP2 (raw fluorescence reading) (SfurOBP2; ligand concentration 4 (unit not given), replicate column 3 of 3): 19735
- Fluorescence competitive binding assay, OBP2 (raw fluorescence reading) (SfurOBP2; ligand concentration 6 (unit not given), replicate column 1 of 3): 19485
- Fluorescence competitive binding assay, OBP2 (raw fluorescence reading) (SfurOBP2; ligand concentration 6 (unit not given), replicate column 2 of 3): 20387
- Fluorescence competitive binding assay, OBP2 (raw fluorescence reading) (SfurOBP2; ligand concentration 6 (unit not given), replicate column 3 of 3): 20572
- Fluorescence competitive binding assay, OBP2 (raw fluorescence reading) (SfurOBP2; ligand concentration 8 (unit not given), replicate column 1 of 3): 16903
- Fluorescence competitive binding assay, OBP2 (raw fluorescence reading) (SfurOBP2; ligand concentration 8 (unit not given), replicate column 2 of 3): 17555
- Fluorescence competitive binding assay, OBP2 (raw fluorescence reading) (SfurOBP2; ligand concentration 8 (unit not given), replicate column 3 of 3): 17959
- Fluorescence competitive binding assay, OBP2 (raw fluorescence reading) (SfurOBP2; ligand concentration 10 (unit not given), replicate column 1 of 3): 16415
- Fluorescence competitive binding assay, OBP2 (raw fluorescence reading) (SfurOBP2; ligand concentration 10 (unit not given), replicate column 2 of 3): 15491
- Fluorescence competitive binding assay, OBP2 (raw fluorescence reading) (SfurOBP2; ligand concentration 10 (unit not given), replicate column 3 of 3): 17367
- Fluorescence competitive binding assay, OBP2 (raw fluorescence reading) (SfurOBP2; ligand concentration 12 (unit not given), replicate column 1 of 3): 14309
- Fluorescence competitive binding assay, OBP2 (raw fluorescence reading) (SfurOBP2; ligand concentration 12 (unit not given), replicate column 2 of 3): 15826
- Fluorescence competitive binding assay, OBP2 (raw fluorescence reading) (SfurOBP2; ligand concentration 12 (unit not given), replicate column 3 of 3): 15705
- Fluorescence competitive binding assay, OBP2 (raw fluorescence reading) (SfurOBP2; ligand concentration 14 (unit not given), replicate column 1 of 3): 15282
- Fluorescence competitive binding assay, OBP2 (raw fluorescence reading) (SfurOBP2; ligand concentration 14 (unit not given), replicate column 2 of 3): 15181
- Fluorescence competitive binding assay, OBP2 (raw fluorescence reading) (SfurOBP2; ligand concentration 14 (unit not given), replicate column 3 of 3): 14363
- Fluorescence competitive binding assay, OBP2 (raw fluorescence reading) (SfurOBP2; ligand concentration 16 (unit not given), replicate column 1 of 3): 13073
- Fluorescence competitive binding assay, OBP2 (raw fluorescence reading) (SfurOBP2; ligand concentration 16 (unit not given), replicate column 2 of 3): 13018
- Fluorescence competitive binding assay, OBP2 (raw fluorescence reading) (SfurOBP2; ligand concentration 16 (unit not given), replicate column 3 of 3): 13539
- Fluorescence competitive binding assay, OBP2 (raw fluorescence reading) (SfurOBP2; ligand concentration 18 (unit not given), replicate column 1 of 3): 15519
- Fluorescence competitive binding assay, OBP2 (raw fluorescence reading) (SfurOBP2; ligand concentration 18 (unit not given), replicate column 2 of 3): 15960
- Fluorescence competitive binding assay, OBP2 (raw fluorescence reading) (SfurOBP2; ligand concentration 18 (unit not given), replicate column 3 of 3): 15297
- Fluorescence competitive binding assay, OBP2 (raw fluorescence reading) (SfurOBP2; ligand concentration 20 (unit not given), replicate column 1 of 3): 14913
- Fluorescence competitive binding assay, OBP2 (raw fluorescence reading) (SfurOBP2; ligand concentration 20 (unit not given), replicate column 2 of 3): 14580
- Fluorescence competitive binding assay, OBP2 (raw fluorescence reading) (SfurOBP2; ligand concentration 20 (unit not given), replicate column 3 of 3): 12894
- number of insects choosing hexane arm (S. furcifera adults): 14
- number of insects choosing volatilies arm (S. furcifera adults): 11
- number of insects failed (no choice) (S. furcifera adults): 15
